# Where a name gives a salt, the structure may show the parent alone. Active and inactive are the calls of the source.
# How the values were obtained:
# [1] = molecular target: Peroxisome proliferator-activated receptor gamma/Nuclear receptor coactivator 2 (Homo sapiens, UniProt P37231); format: functional;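 also: agonist potency for raising coactivator recruitment to the receptor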
# [2] = molecular target: Peroxisome proliferator-activated receptor gamma/Nuclear receptor coactivator 3 (Homo sapiens, UniProt P37231); format: functional;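 also: agonist potency for raising coactivator recruitment to the receptor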
# Sequence of Peroxisome proliferator-activated receptor gamma/Nuclear receptor coactivator 3 (P37231 whole entry): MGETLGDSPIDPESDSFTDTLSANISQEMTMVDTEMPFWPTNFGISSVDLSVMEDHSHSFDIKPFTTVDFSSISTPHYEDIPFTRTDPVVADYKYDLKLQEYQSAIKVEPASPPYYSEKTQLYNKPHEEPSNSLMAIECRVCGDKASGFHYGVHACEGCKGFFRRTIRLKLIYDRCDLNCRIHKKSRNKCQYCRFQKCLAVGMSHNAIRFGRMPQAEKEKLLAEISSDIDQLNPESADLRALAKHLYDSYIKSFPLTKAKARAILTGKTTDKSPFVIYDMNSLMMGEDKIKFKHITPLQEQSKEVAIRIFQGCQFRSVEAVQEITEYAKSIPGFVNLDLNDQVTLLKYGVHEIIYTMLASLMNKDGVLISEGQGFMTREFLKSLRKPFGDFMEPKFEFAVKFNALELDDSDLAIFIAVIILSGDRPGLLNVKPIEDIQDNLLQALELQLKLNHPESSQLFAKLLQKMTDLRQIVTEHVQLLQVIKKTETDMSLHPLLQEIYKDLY
# Sequence of Peroxisome proliferator-activated receptor gamma/Nuclear receptor coactivator 3 (Q9Y6Q9 whole entry, further chain): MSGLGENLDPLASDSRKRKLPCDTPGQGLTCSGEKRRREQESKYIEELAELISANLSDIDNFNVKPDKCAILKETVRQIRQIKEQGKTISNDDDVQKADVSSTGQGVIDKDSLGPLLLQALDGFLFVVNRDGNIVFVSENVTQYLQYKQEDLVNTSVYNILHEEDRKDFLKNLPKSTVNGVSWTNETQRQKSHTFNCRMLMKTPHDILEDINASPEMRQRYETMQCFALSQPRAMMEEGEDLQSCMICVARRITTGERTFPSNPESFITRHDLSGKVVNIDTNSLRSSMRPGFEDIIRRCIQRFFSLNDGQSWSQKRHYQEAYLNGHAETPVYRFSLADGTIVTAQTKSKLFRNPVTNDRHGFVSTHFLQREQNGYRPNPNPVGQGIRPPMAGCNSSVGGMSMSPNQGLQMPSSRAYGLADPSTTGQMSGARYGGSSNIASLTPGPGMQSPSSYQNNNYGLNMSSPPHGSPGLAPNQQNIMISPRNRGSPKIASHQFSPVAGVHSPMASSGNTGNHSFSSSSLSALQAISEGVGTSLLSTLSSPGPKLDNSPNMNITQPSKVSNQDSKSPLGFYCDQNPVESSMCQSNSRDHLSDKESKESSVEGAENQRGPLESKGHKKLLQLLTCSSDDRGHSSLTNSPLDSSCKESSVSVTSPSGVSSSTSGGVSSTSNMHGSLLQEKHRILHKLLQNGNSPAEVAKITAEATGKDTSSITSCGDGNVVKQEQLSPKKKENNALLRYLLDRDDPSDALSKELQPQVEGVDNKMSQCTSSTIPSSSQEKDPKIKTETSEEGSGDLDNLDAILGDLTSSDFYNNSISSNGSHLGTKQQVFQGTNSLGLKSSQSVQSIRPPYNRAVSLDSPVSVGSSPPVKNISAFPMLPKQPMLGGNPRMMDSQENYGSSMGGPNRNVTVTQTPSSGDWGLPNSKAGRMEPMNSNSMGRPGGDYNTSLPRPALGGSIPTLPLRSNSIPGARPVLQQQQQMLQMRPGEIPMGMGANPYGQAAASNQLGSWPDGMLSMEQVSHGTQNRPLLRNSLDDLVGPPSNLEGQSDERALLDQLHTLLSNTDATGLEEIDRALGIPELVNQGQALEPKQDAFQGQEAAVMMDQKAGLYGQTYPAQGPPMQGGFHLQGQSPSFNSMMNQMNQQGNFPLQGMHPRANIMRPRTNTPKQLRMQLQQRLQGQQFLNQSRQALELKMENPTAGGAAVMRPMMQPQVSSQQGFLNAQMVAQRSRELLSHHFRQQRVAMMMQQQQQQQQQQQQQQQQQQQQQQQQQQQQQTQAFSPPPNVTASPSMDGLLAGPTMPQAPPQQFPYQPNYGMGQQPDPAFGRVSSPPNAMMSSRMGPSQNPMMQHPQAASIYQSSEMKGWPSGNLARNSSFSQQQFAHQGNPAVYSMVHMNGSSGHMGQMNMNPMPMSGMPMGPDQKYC
# [3] = molecular target: Peroxisome proliferator-activated receptor gamma/Nuclear receptor coactivator 1 (Homo sapiens, UniProt P37231); format: functional;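 also: agonist potency as compounds enhance coactivator SRC-1 recruitment to PPARgamma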
# Sequence of Peroxisome proliferator-activated receptor gamma/Nuclear receptor coactivator 1 (P37231 whole entry): as the sequence (P37231 whole entry) above
# Sequence of Peroxisome proliferator-activated receptor gamma/Nuclear receptor coactivator 1 (Q15788 whole entry, further chain): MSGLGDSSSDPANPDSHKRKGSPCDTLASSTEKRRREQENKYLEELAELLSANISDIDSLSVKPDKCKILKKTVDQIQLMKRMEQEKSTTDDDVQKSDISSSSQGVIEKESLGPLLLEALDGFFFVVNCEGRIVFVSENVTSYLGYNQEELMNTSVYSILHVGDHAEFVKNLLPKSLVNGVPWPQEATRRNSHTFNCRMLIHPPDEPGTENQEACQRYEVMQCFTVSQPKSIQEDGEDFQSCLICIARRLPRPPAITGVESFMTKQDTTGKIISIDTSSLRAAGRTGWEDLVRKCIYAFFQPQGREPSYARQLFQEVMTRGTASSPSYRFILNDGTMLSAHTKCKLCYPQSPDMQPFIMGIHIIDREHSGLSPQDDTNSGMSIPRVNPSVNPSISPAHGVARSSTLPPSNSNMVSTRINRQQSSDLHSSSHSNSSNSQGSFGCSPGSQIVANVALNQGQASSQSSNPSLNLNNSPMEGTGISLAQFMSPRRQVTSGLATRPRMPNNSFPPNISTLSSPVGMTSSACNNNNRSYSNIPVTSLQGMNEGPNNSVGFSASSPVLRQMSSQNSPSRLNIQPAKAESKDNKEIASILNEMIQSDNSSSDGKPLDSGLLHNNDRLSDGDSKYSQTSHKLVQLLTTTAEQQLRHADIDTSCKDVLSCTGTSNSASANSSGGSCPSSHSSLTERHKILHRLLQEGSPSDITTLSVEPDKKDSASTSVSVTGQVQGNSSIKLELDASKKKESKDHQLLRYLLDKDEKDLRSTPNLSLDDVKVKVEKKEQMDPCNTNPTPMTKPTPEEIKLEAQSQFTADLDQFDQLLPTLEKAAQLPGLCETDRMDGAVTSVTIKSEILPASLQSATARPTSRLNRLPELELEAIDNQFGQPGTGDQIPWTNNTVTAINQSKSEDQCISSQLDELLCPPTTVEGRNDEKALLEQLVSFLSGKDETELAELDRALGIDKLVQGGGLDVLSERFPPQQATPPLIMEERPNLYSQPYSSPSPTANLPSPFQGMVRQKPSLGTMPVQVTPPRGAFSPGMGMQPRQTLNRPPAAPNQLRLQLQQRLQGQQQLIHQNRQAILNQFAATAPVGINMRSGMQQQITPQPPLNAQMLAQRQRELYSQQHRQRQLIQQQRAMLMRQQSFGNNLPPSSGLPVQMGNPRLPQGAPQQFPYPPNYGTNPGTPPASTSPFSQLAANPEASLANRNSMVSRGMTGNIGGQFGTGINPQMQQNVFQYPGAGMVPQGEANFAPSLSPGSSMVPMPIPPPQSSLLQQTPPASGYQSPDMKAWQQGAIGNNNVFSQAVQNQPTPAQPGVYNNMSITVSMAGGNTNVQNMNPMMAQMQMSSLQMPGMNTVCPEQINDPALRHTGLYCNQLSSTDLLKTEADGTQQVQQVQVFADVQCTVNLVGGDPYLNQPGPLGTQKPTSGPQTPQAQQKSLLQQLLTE
# [4] = molecular target: Cytochrome P450 2C9 (Homo sapiens, UniProt P11712)
# [5] = molecular target: Cytochrome P450 3A4 (Homo sapiens, UniProt P08684);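 also: CYP3A4 tested as one member of a cytochrome P450 panel screen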
# Sequence of Cytochrome P450 3A4 (P08684 whole entry, the tested form may be a part): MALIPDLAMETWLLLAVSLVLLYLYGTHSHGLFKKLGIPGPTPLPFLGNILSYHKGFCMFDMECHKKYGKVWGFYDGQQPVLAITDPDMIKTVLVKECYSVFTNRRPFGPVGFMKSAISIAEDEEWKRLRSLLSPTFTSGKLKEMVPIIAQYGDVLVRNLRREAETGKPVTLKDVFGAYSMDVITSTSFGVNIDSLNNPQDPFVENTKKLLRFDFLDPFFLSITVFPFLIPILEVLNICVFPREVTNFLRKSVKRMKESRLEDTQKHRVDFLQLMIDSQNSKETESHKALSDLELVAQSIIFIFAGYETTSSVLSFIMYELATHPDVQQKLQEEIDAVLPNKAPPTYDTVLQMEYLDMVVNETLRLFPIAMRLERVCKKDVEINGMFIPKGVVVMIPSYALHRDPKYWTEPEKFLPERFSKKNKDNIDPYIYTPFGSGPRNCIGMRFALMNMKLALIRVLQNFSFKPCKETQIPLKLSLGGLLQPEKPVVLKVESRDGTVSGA
# [6] = inhibitors of HIV Env-driven cell fusion, dose response, cherry-pick (AID 652057); format: functional, cell-based
# [7] = ZM109 Env clade C HIV-1 fusion inhibitors, dose response, HeLa effector, CEM target cells, luciferase, cherry-pick (AID 652058); format: functional, cell-based
# [8] = molecular target: Cytochrome P450 2D6 (Homo sapiens, UniProt P10635);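 also: CYP2D6 member of a cytochrome P450 panel assay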
# [9] = off-target signal loss in HeLa-CEM21 co-culture – HeLa F-luc CTL cells, cherry-picked, counter-screen for HIV-1 Env fusion inhibitor project, dose response (AID 652040); format: functional, cell-based;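 also: potency for signal decrease marking cytotoxic or nonspecific inhibition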
# [10] = inhibitors of clade B AD8 Env fusion, dose response, cell-based, cherry-pick (AID 652062); format: functional;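 also: luciferase signal from cell-cell fusion driven by HIV-1 clade B AD8 Env; potency is for inhibitors of fusion seen as a drop in luminescence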
# [11] = molecular target: T1, High affinity choline transporter 1 (Homo sapiens, UniProt Q9GZV3); assay: CHT inhibitors, dose response, cell-based, 5-point CRC, membrane potential dye (AID 504840); format: functional
# T1 sequence (Q9GZV3 whole entry): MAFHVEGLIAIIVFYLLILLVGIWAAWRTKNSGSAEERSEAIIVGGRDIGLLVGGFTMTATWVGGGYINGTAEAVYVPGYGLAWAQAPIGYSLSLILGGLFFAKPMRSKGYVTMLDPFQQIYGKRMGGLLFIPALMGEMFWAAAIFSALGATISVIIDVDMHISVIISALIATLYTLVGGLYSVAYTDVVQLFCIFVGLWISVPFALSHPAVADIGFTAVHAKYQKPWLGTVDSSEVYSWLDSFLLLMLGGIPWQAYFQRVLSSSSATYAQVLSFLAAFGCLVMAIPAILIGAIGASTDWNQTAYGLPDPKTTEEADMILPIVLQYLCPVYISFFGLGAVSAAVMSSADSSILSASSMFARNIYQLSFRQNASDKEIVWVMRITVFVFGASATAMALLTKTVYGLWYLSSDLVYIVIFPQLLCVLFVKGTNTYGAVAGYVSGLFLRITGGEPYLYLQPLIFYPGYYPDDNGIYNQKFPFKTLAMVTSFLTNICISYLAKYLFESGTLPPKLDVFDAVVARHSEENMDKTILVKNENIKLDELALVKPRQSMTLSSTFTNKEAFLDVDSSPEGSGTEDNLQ
# [12] = molecular target: Prothrombin (Homo sapiens, UniProt P00734); assay: Thrombin 1536 HTS Dose Response Confirmation. [Related pubchem assays: 1046 (Thrombin 1536 HTS; hits were confirmed in this assay)]; format: functional
# [13] = molecular target: T2, Streptokinase A (Streptococcus pyogenes serotype M1, UniProt P10520); assay: S. pyogenes streptokinase expression inhibitors, potency, dose response, plasminogen activation absorbance, OD405 (AID 1914); format: functional, Streptococcus pyogenes M1 GAS;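 also: secreted streptokinase activity via plasminogen activation per viability signal from cell pellet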
# T2 sequence (P10520 whole entry): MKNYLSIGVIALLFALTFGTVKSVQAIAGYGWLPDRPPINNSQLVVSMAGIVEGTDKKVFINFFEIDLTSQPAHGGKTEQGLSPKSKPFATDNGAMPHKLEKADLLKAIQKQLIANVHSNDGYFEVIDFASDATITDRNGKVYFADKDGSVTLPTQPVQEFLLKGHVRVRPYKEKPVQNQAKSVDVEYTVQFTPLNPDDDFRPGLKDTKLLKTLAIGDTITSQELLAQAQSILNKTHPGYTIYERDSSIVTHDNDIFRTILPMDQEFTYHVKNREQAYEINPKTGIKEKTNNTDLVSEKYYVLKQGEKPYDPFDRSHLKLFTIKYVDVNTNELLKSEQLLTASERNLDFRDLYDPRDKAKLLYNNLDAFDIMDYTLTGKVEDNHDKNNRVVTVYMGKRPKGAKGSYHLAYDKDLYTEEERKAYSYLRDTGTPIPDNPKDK
# [14] = test system: Streptococcus; assay: Group A Streptococcus viability loss, dose response, counter-screen for streptokinase expression inhibitor project, luminescence, BacTiterGlo (AID 1915); format: functional, organism-based;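 also: potency for reduction of bacterial viability or growth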
# [15] = microbe, parasite or virus in culture; format: functional; conditions: Mycobacterium tuberculosis
# [16] = molecular target: T3, Ubiquitin-conjugating enzyme E2 N (Homo sapiens, UniProt P61088); format: functional;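 also: Dose-response confirmation in a TR-FRET assay detecting UBC13-driven polyubiquitin chain formation, inhibition measured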
# T3 sequence (P61088 whole entry): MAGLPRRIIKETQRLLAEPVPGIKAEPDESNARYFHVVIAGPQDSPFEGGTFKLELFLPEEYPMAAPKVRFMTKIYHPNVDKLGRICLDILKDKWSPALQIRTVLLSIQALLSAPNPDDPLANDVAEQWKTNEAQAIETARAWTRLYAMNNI
# [17] = molecular target: T4, Cytochrome P450 1A2 (Homo sapiens, UniProt P05177);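 also: PubChem cytochrome P450 panel assay, CYP1A2 panel member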
# T4 sequence (P05177 whole entry): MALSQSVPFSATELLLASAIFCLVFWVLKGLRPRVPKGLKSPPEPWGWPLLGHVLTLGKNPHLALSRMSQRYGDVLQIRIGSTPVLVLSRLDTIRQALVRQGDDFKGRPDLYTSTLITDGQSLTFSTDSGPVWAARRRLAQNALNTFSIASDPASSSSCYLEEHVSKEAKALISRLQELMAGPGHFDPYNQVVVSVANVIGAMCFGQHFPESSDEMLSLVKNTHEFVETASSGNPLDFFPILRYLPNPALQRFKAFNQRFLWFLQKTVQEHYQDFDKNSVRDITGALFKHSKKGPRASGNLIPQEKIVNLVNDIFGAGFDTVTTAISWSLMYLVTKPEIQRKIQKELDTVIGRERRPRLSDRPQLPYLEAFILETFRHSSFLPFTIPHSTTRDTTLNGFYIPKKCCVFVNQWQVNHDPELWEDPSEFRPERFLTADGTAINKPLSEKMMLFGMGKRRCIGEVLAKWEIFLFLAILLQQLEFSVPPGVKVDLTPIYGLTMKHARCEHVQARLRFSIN
# [18] = molecular target: Heat shock protein HSP 90-alpha (Homo sapiens, UniProt P07900); format: functional, organism-based
# [19] = Luminescence Cell-Based Dose Retest to Confirm Inhibitors of Cancer Stem Cells. [Related pubchem assays (depositor defined):AID2717, AID2721]; format: functional; conditions: Homo sapiens
# [20] = MC4R antagonists, dose response, counter-screen for LGR2 antagonist project, cell-based, plate reader, cherry pick (AID 743444); format: functional;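 also: transfected HEK 293 cells stimulated with alpha-MSH peptide; potency of inhibitors of the alpha-MSH evoked signal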
# [21] = LGR2 antagonists, dose response, cell-based, HEK293, CRE-luciferase reporter, cherry pick, set 2 (AID 743343); format: functional;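 also: transfected cells were stimulated with diluted bursicon conditioned medium after compound addition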
# [22] = molecular target: Nonstructural protein 1 (Influenza A virus, UniProt Q194T2); format: functional, Influenza A virus (A/California/07/2009(H1N1))
# Sequence of Nonstructural protein 1 (Q194T2 whole entry): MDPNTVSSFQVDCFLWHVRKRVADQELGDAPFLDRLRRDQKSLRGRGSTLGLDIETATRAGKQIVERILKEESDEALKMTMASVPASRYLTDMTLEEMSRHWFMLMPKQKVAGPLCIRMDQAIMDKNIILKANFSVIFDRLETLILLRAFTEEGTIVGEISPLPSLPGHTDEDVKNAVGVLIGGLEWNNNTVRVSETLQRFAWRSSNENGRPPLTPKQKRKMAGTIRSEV
# [23] = molecular target: T5, Corticotropin-releasing factor receptor 2/Corticotropin-releasing factor-binding protein (Homo sapiens, UniProt P24387+Q13324); assay: Dose Response confirmation of uHTS hits for small molecule antagonists of the CRF-binding protein and CRF-R2 receptor complex.; format: functional; conditions: read-out: IC50_Mean
# T5 sequence (Q13324 whole entry): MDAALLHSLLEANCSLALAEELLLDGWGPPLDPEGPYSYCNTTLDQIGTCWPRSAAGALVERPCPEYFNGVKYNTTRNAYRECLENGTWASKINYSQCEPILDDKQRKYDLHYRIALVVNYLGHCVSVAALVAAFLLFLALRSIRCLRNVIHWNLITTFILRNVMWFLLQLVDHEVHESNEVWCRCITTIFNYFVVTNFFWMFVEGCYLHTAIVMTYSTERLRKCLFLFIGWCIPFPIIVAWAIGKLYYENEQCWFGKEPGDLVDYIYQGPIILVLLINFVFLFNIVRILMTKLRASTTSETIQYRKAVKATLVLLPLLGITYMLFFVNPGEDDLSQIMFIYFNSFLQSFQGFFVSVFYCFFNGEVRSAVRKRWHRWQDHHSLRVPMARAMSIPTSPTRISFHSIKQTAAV
# T5 sequence (P24387 whole entry): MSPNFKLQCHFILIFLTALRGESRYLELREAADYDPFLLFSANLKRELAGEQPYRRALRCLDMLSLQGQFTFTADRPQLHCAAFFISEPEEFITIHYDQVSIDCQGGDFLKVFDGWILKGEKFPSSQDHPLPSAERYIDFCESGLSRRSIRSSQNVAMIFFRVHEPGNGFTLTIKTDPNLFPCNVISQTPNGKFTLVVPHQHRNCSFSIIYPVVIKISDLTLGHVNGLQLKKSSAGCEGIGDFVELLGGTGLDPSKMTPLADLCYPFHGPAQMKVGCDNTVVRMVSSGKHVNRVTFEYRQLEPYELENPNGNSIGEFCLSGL
# [24] = molecular target: Large T antigen (Simian virus 40, UniProt P03070); format: functional, Betapolyomavirus macacae;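 also: Confirmatory-stage PubChem screen for compounds that inhibit SV40 T antigen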
# [25] = molecular target: T5, Corticotropin-releasing factor receptor 2/Corticotropin-releasing factor-binding protein; assay: activators of CRF receptor 2 with binding protein – uHTS hits, confirmation (AID 602473); format: functional; conditions: read-out: EC50_Mean
structure (smiles),measurement,setting,value
COc1ccc(C(=O)Nc2cc(C)c3c(=O)oc4ccccc4c3n2)cc1,EC50,[1],82.8 µM (not active)
same,EC50,[2],> 79.4 µM (not active)
same,EC50,[3],> 79.4 µM (not active)
CC(=O)OCC(=O)[C@]12OC(C)(C)O[C@@H]1C[C@H]1[C@H]3CC=C4C[C@@H](O)CC[C@]4(C)[C@H]3CC[C@]12C,AC50,[4],7.94 µM (inconclusive)
same,AC50,[5],inconclusive
CN1CC(c2ccccc2)C2(COc3ccccc3C2=O)C12C(=O)Nc1ccccc12 (centres undefined),AC50,[6],2.66 µM (active)
same,AC50,[7],3.46 µM (active)
same,AC50,[8],20 µM (inconclusive)
same,AC50,[9],4.14 µM (active)
same,AC50,[10],5.51 µM (active)
CCN(CC(=O)Nc1cc(Cl)ccc1C)C(=O)c1ccc(=O)n(Cc2ccccc2)n1,AC50,[6],4.27 µM (active)
same,AC50,[7],3.23 µM (active)
same,AC50,[9],5.05 µM (active)
same,AC50,[10],9.4 µM (active)
C=CCc1ccc(O)c(-c2ccc(O)c(CC=C)c2)c1 [HONOKIOL],IC50,[11],12 µM (active)
CCOC(=O)c1c(-c2ccc(C)cc2)csc1NC(=O)CCN1CCOCC1,IC50,[12],> 50 µM (not active)
same,EC50,[13],65.4 µM (active)
same,EC50,[14],> 150 µM (not active)
Cc1cccc2cc(CN(Cc3ccc4c(c3)OCO4)Cc3nnnn3C3CCCC3)c(=O)[nH]c12,EC50,[1],> 79.4 µM (not active)
same,EC50,[2],> 79.4 µM (not active)
same,EC50,[3],> 79.4 µM (not active)
Cc1ccc(NCC(O)C(O)C(O)CO)c(N=Nc2ccccc2)c1C (centres undefined),IC50,[12],> 50 µM (not active)
CC(NC(=O)c1cc(S(=O)(=O)N(C)C)ccc1N1CCCC1)C1CC2CCC1C2 (centres undefined),AC50,[6],2.74 µM (active)
same,AC50,[7],4.03 µM (active)
same,AC50,[9],4.89 µM (active)
same,AC50,[10],7.68 µM (active)
CC(=O)CCc1ccc(OC(=O)c2cccnc2)cc1,EC50,[1],> 79.4 µM (not active)
same,EC50,[2],> 79.4 µM (not active)
same,EC50,[3],> 79.4 µM (not active)
O=C(Nc1cnccn1)c1cccc(C(F)(F)F)c1,EC50,[1],> 79.4 µM (not active)
same,EC50,[2],> 79.4 µM (not active)
same,EC50,[3],> 79.4 µM (not active)
Cc1ccc(C(=O)NCC(=O)NCCCc2ccccc2)cc1,IC50,[11],16.6 µM (active)
CCOc1ccc(OCC)c(NC(=O)C2CCCN(S(=O)(=O)c3c[nH]cn3)C2)c1 (centres undefined),IC50,[12],> 50 µM (not active)
CC(C)NC(=O)N1CCC2(CC1)CCN(C(=O)c1cccc(F)c1)CC2,AC50,[5],inconclusive
CCCCN(CCCC)CCC(O)c1cc2c(Cl)cc(Cl)cc2c2cc(C(F)(F)F)ccc12 (centres undefined) [HALOFANTRINE HYDROCHLORIDE],CC50,[15],> 40 µM (active)
same,IC50,[16],> 20 µM (inactive)
same,AC50,[17],20 µM (inconclusive)
same,AC50,[18],7.27 µM (active)
same,AC50,[19],6.51 µM (active)
COc1cccc(-c2cc(C(=O)N3CCCCCC3)no2)c1,AC50,[20],16.7 µM (active)
same,AC50,[21],10.3 µM (active)
CCN=C(S)NNC(=O)c1ccccn1,IC50,[16],> 20 µM (inactive)
same,IC50,[22],1.55 µM (active)
Cc1nonc1NC(=O)CSc1ccc(-c2ccccc2)nn1,IC50,[11],14.5 µM (active)
COC(=O)c1nnc(NC(=O)c2ccc(Br)cc2)[nH]1,IC50,[12],0.0137 µM (active)
Cc1ccc(-n2c(C)nc3c(cnn3-c3ccc(F)cc3)c2=O)cc1C,AC50,[8],15.8 µM (inconclusive)
same,AC50,[4],15.8 µM (inconclusive)
same,AC50,[5],inconclusive
C[C@@]12CC[C@@H]3[C@H](CCC4=CC(=O)CC[C@]43C)[C@@H]1CC[C@@H]2C(=O)Cn1cnc2c(S)ncnc21,AC50,[5],inconclusive
CC1(C)C(/C=C/C=C/C=C/C=C2\N(CCCCS(=O)(=O)O)c3ccc4ccccc4c3C2(C)C)=[N+](CCCCS(=O)(=O)[O-])c2ccc3ccccc3c21 [INDOCYANINE GREEN],IC50,[23],> 47.1 µM (inactive)
same,IC50,[24],2.1 µM (active)
same,IC50,[22],2.7 µM (active)
same,EC50,[25],> 53 µM (inactive)

# From ChEMBL document CHEMBL1201862, “PubChem BioAssay data set” (2004)
